pEC50, pIC50: −log10 of the molar value. Activity calls are given as the source filed them.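 Rule for the calls: active = compounds giving half or more protection of infected cells from virus-caused growth loss, again on retest; inactive = the rest.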

Consider 52 compounds from PubChem BioAssay AID179 (DTP/NCI, 2004).

This experiment concerns CEM cells HIV-1 protection, formazan growth assay. In words: NCI AIDS Antiviral Assay. The following applies: for pIC50: measured here: growth of uninfected CEM cells. The method in brief: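 Category rules: moderately active means at least 50% protection on retest, and confirmed active means 100% protection reproducibly. The underlying data came from a formazan growth assay in HIV-1-infected CEM cells.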

For orientation: pEC50 means the EC50 on a negative log10 scale, so that one unit is a factor of ten. The pIC50 is −log10 of the IC50, conventionally taken in molar units. A high value points to a small IC50. As to `CC1=NN(C(=O)CC(=O)Nc2cccc(C)c2)C(=O)C1N=Nc1ccc(S(=O)(=O)c2ccc(N=NC3C(=O)N(C(=O)CC(=O)Nc4cccc(C)c4)N=C3C)cc2)cc1` (configuration not stated), the pEC50 is less than 4.30 and the pIC50 was less than 4.30.
`COc1ccc(-c2cc(=O)c3c(O)cc(O)c(-c4cc(-c5cc(=O)c6c(O)cc(OC)cc6o5)ccc4OC)c3o2)cc1`: the pEC50 was less than 3.70 and the pIC50 is 3.97.
The like results for `CC1OC(O[C@H]2C3C=CO[C@@H](OC4OC(CO)C(O)C(O)C4O)C3[C@@]3(COC(=O)/C=C/c4ccccc4)O[C@@H]23)C(O)C(O)C1O` (some centres not stated) were, in that order, less than 3.70 and less than 3.70.
The like results for `O=C(NO)c1ccc(OCc2ccccc2)cc1` were, in that order, less than 3.70 and 4.79.
In the case of `COc1cc(CCC(=O)CC(=O)CCc2ccc(O)c(OC)c2)ccc1O`, the pEC50 is less than 3.70 and the negative logarithm of the IC50 (pIC50) is 4.46.
The like results for `O=c1c2ccccc2nc(N/N=C/c2ccc([N+](=O)[O-])cc2)n1-c1ccccc1` were, in that order, less than 4.30 and less than 4.30.
The like results for `Cc1csc2nc3c(cnn3C)c(=S)n12` were, in that order, less than 3.70 and 4.41.
For the compound `CC1CCC2CC(=O)NC(=O)CC12` (configuration not stated), the pEC50 was less than 3.34 and the negative-log IC50 (pIC50) was less than 3.34.
`CCC(=O)c1c(CC)ccc2ccccc12`: the pEC50 is less than 3.70 and the negative-log IC50 (pIC50) was 3.98.
With `Cc1cc(-n2nnc(C(=O)O)c2-c2ccccc2)c2ccc(Cl)cc2n1`, the pEC50 was less than 3.70 and the negative logarithm of the IC50 (pIC50) is less than 3.70.
As for `COc1cc(C)c2c(c1C=O)Oc1c(c(C)c(O)c3c1C(O)OC3=O)OC2=O` (configuration not stated), the pEC50 is less than 4.03 and the pIC50 is 4.27.
For `C/C1=C\[C@H](C)C[C@H](C)OC(=O)C[C@H](c2ccc(O)cc2)NC(=O)[C@@H](Cc2c(Br)[nH]c3ccccc23)N(C)C(=O)[C@H](C)NC(=O)[C@@H](C)C1` the same measures were less than 5.70 and 7.52.
With `Clc1ccc(OCc2nnc3n2N=C(c2ccccc2)CS3)c(Cl)c1`, the result was inactive.
On to `CO/C(=C/C(=O)c1ccccc1)C(=O)c1ccccc1`, for which the pEC50 was less than 3.94 and the negative logarithm of the IC50 (pIC50) is 4.21.
The like results for `NC(N)=NS(=O)(=O)c1ccc(NC(=O)c2cccc3c(Nc4ccc(S(=O)(=O)N=C(N)N)cc4)c4ccc(Cl)cc4nc23)cc1` were, in that order, less than 4.27 and less than 4.27.
For `Clc1ccc2sc(-n3ccc4ccccc43)nc2c1` the same measures were less than 3.70 and 3.77.
The like results for `C=CCC1C(=O)Nc2cccc3ncn(c23)C1=O` (configuration not stated) were, in that order, less than 3.70 and 3.73.
For `O=C(NCCN1CCCCC1)c1cccc(I)c1`, the pEC50 was less than 3.70 and the negative-log IC50 (pIC50) is less than 3.70.
`CCOC(=O)c1c(N2CCCC2)nsc1Nc1ccc(F)cc1`: the pEC50 is less than 3.70 and the pIC50 was 4.63.
`COc1nnc(C)c2[nH]c(=S)[nH]c12`: the pEC50 is less than 3.34 and the negative logarithm of the IC50 (pIC50) is less than 3.34.
As to `Cc1[nH]n(C(=N)N)c(=O)c1CCO`, the pEC50 was less than 3.70 and the negative-log IC50 (pIC50) was less than 3.70.
In the case of `C=C1CN(S(=O)(=O)c2ccc(C)cc2)CCCN(CCC(C)C)CCCN(S(=O)(=O)c2ccc(C)cc2)C1`, the pEC50 is less than 3.70 and the negative logarithm of the IC50 (pIC50) was 5.99.
`COc1nc(=O)cc(N)n1C1OC(CO)C(O)C1O` (configuration not stated): the pEC50 is less than 3.04 and the negative logarithm of the IC50 (pIC50) is less than 3.04.
For `CCN(CC)CCC(=O)NC1c2ccccc2Sc2c(C)cccc21` (configuration not stated), the pEC50 is less than 3.29 and the negative logarithm of the IC50 (pIC50) is 4.35.
As for `Cc1nc2c(Br)cc(Br)cc2c(=O)n1-c1ccccc1NC1OCC(O)C(O)C1O` (configuration not stated), the pEC50 was less than 3.70.
With `CC(=O)Cc1cc(=O)c2c(C)cc(O)c(C3OC(CO)C(O)C(O)C3O)c2o1` (configuration not stated), the pEC50 is 4.50 and the pIC50 was 3.50.
For `Cc1c2ccccc2nc(CSc2ccccc2)[n+]1[O-]` the same measures were 5.02 and 3.75.
Regarding `NC1=NC2OC(CO)C(O)C2O1` (configuration not stated), the pEC50 was less than 3.70 and the negative logarithm of the IC50 (pIC50) was less than 3.70.
Regarding `CC(C)=CCCc1c(C)ccc2c1C(=O)C(=O)C(C(C)C)=C2O`, the pEC50 was less than 4.24 and the pIC50 was 4.47.
The like results for `CC1=NN2C(=O)C(C)SC2=NC(C)(C)C1` (configuration not stated) were, in that order, less than 2.95 and less than 2.95.
On to `CC(=O)ONC(C(=O)C(C)(C)C)C(=O)C(C)(C)C`, for which the pEC50 was less than 3.70 and the negative logarithm of the IC50 (pIC50) is less than 3.70.
Turning to `C/C(=N/NC(=O)c1ccccc1S(N)(=O)=O)C(CN1CCCCC1)C(C1=C(O)C2C=CC=CC2OC1=O)c1ccccc1` (configuration not stated), the pEC50 is less than 4.67 and the negative-log IC50 (pIC50) is less than 4.67.
On to `COc1ccc(Sc2ccccc2N)cc1`, for which the outcome was inactive.
For the compound `COc1ccc(N[C@H](CS(=O)c2ccc(C)cc2)C(F)(F)F)cc1` (some centres not stated), the pEC50 is less than 3.70 and the pIC50 is less than 3.70.
For `CC(=O)Nc1cc2c(O)c(N=Nc3ccc(C(=O)Nc4ccc(N=Nc5ccc(S(=O)(=O)O)cc5)cc4)cc3)c(S(=O)(=O)O)cc2cc1S(=O)(=O)O`, the result was active.
With `C=C(C)CCOC(c1ccccc1)(c1ccccc1)c1ccccc1`, the pEC50 is less than 4.66 and the pIC50 was less than 4.66.
In the case of `Nc1nc(N)c(-c2cccc(C(F)(F)F)c2)c(Cc2cccc(C(F)(F)F)c2)n1`, the pEC50 is less than 4.70 and the pIC50 is 6.12.
The like results for `O=C1O/C(=C2\OCc3ccccc32)c2ccccc21` were, in that order, less than 3.82 and less than 3.82.
For `C[C@H]1ON2CCC[C@@H]2[C@@H]1C(=O)N1C2CC3CCC2(CS1(=O)=O)C3(C)C` (some centres not stated) the same measures were less than 3.70 and less than 3.70.
For `CC1(C)CN=C(c2ccc3ccccc3c2O)N1` the same measures were less than 3.70 and less than 3.70.
Turning to `C[C@H]1[C@H](NC(=O)/C(=N\OC(C)(C)C(=O)O)c2csc(N)n2)C(=O)N1S(=O)(=O)O`, the pEC50 is less than 3.24 and the pIC50 is less than 3.24.
With `CCC(=O)SC1CC2=CC(=O)CCC2(C)C2CCC3(C)C(O)CCC3C12` (configuration not stated), the pEC50 was less than 3.70 and the pIC50 was less than 3.70.
Take `Cc1ccc(C(=O)CC2=Nc3nnc(CCCCCCCc4nnc5n4C(=O)C(CC(=O)c4ccc(C)cc4)=N5)n3C2=O)cc1`: the pEC50 is less than 5.62 and the pIC50 was less than 5.62.
As to `Cc1cc(=O)[nH]c(NNC(C#N)c2ccc(N(C)C)cc2)n1` (configuration not stated), the pEC50 is less than 4.20 and the negative logarithm of the IC50 (pIC50) was less than 4.20.
Take `S=C1NC(/C=C/c2ccccc2)Nc2ccccc21` (configuration not stated): the pEC50 is less than 4.57 and the negative-log IC50 (pIC50) was less than 4.57.
As to `N#Cc1cnc2nc1NCCCCCCC2`, the pEC50 was less than 3.69 and the pIC50 is 3.88.
As to `O=c1c2ncn(C3CCCCO3)c2n(-c2ccccc2)c(=S)n1-c1ccccc1` (configuration not stated), the outcome was inactive.
Take `COP1(=O)OCc2cnccc2O1` (configuration not stated): the pEC50 is less than 3.70 and the negative-log IC50 (pIC50) was less than 3.70.
For the compound `O=C(O)CCC(NC(=O)c1ccc(Oc2nc3ccccc3nc2-c2ccccc2)cc1)C(=O)O` (configuration not stated), the pEC50 is less than 3.70 and the pIC50 was less than 3.70.
In the case of `c1ccc(C2=NN(c3ccccc3)CC2)cc1`, the result was inactive.
Turning to `CC1(C)OC(=O)CC(=O)O1`, the pEC50 was less than 3.70 and the negative-log IC50 (pIC50) was less than 3.70.
As for `CC1(C)CC(=O)C(Cc2ccccc2)(Cc2ccccc2)C(=O)C1`, the result was inactive.
